{"source": "patent US12680065B2", "about": "“Artificial placenta and methods of preparation” (The Trustees of the University of Pennsylvania, priority 2015, dated 2026)", "key": {"BeWo cells": {"tested_on": "BeWo cells", "assay": "Forskolin-induced trophoblast syncytialization in the microfluidic device (immunofluorescence)", "assay_type": "cell-based, human", "method": "(§1) Following the formation of a confluent epithelial monolayer on the membrane surface in the upper microchannel, the apical side of the epithelium can be treated with forskolin to activate the protein kinase A pathway in the cultured trophoblasts. A stock solution of forskolin (Sigmal 5 mg/mL in DMSO) can be diluted with F-12K medium to a final concentration of 50 uM and perfused through the upper microchannel. After 72 hours of forskolin treatment, the trophoblast cells can be fixed in 4% PFA, permeabilized in Triton-X 100, and then incubated with 2% BSA in PBS for immunofluorescence staining. To analyze changes in junctional protein expression, the samples can be incubated with anti-E-cadherin antibody (Life Technologies) in 2% BSA, followed by secondary antibody and DAPI. Additionally, media perfusate can be collected at 48, 72, and 96 hours from both untreated and forskolin-treated devices. The collected samples can be analyzed using a human chorionic gonadotropin beta (β-hCG) ELISA kit (Abcam) to quantify the levels of β-hCG produced by the trophoblast population at each time point.\nAccordingly, when the BeWo cells in the maternal compartment are exposed to forskolin, they can begin to undergo cell-cell fusion as illustrated by nuclear aggregation that can be evident at 72 hours of forskolin treatment (FIG. 9B). […]"}, "trophoblast cells": {"tested_on": "trophoblast cells", "assay": "β-hCG ELISA of maternal compartment perfusate", "assay_type": "cell-based, human", "settings": "50 uM forskolin; no detectable β-hCG in the absence of forskolin", "method": "as §1, with “([…]” for “(Sigmal”, “point. […] Accordingly, the production of the […] of hCG in the maternal compartment can be measured to quantitatively examine syncytialization. […]” for “point.”"}}, "data": [{"smiles": "C=C[C@@]1(C)CC(=O)[C@]2(O)[C@@]3(C)[C@@H](O)CCC(C)(C)[C@@H]3[C@H](O)[C@H](OC(C)=O)[C@@]2(C)O1", "note": "[forskolin]", "values": [{"measurement": "fraction of BeWo population undergoing cell-cell fusion (nuclear aggregation)", "setting": "BeWo cells; 50 uM forskolin in upper microchannel, 72 hours", "result": "approximately 50%"}, {"measurement": "effect on cell viability", "setting": "BeWo cells; 50 uM forskolin, BeWo cells in maternal compartment", "result": "does not necessarily exert deleterious effects on cell viability"}, {"measurement": "time to production of hCG by trophoblast cells", "setting": "trophoblast cells", "result": "≤ 48", "unit": "h"}]}]}
